Common to all, as to format: biochemical
One experiment concerns the target T1, hOGA Y69Q (Homo sapiens, UniProt O60502, Y69Q).
T1 construct: GST (N); made in house; host or cells: transiently transfected HEK293 cells
T1 sequence (O60502 1-916 Y69Q): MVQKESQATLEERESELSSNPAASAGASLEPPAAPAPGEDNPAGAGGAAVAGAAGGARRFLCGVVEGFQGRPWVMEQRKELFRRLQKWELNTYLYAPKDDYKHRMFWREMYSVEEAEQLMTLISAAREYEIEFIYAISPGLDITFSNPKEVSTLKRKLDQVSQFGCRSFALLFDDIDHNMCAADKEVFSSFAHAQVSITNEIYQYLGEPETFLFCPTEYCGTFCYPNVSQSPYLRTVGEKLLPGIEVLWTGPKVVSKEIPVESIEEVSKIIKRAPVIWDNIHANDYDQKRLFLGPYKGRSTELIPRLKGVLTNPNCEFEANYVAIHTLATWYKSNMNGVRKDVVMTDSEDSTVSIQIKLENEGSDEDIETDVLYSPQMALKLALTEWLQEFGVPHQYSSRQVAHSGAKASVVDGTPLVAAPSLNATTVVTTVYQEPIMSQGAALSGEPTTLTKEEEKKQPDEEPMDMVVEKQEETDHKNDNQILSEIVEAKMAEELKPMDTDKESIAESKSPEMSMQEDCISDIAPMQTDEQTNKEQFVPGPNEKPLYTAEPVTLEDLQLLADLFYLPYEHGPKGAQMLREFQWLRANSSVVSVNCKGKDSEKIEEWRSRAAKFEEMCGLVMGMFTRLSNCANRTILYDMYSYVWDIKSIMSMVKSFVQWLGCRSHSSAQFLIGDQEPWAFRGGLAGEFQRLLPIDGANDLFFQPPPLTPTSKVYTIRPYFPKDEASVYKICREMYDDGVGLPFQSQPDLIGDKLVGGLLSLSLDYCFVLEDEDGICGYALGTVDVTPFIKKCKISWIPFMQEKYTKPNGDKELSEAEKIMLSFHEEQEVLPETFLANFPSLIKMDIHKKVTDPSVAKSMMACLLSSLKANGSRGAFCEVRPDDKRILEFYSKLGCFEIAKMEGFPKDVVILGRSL
Put plainly: hOGA Y69Q mutant glycopeptide hydrolysis, substrate competition assay. As to conditions: hOGA point mutant Y69Q; competition with 4MU-GlcNAc; 37°C, pH 7.4; triplicate; read-out: Michaelis constant (KM) for hOGA Y69Q.

In another experiment the target is T2, hOGA Y69F (Homo sapiens, UniProt O60502, Y69F).
T2 construct: GST (N); made in house; host or cells: transiently transfected HEK293 cells
T2 sequence (O60502 1-916 Y69F): T1 sequence (O60502 1-916 Y69Q) with Q69F
In words: hOGA Y69F mutant glycopeptide hydrolysis, substrate competition assay. Particulars: hOGA point mutant Y69F; competition with 4MU-GlcNAc; 37°C, pH 7.4; triplicate; read-out: Michaelis constant (KM) for hOGA Y69F.

The target in another experiment is T3, hOGA Y69S (Homo sapiens, UniProt O60502, Y69S).
T3 construct: GST (N); made in house; host or cells: transiently transfected HEK293 cells
T3 sequence (O60502 1-916 Y69S): T1 sequence (O60502 1-916 Y69Q) with Q69S
In words: hOGA Y69S mutant glycopeptide hydrolysis, substrate competition assay. Particulars: hOGA point mutant Y69S; competition with 4MU-GlcNAc; 37°C, pH 7.4; triplicate; read-out: Michaelis constant (KM) for hOGA Y69S.

Positions count from the first letter of the chain named.

As to “PVSVPYS(O-GlcNAc)SAQSTS [TAB1 (Ser395) 13, 13-residue O-GlcNAc glycopeptide derived from TAB1 Ser395 site]”, the Km was 3600 µM on hOGA Y69Q, 1100 µM at hOGA Y69F and more than 4000 µM at hOGA Y69S.

For “VAHS(O-GlcNAc)GAK [hOGA (Ser405) 7, 7-residue O-GlcNAc glycopeptide derived from hOGA Ser405 site]”, the Km at hOGA Y69Q was more than 4000 µM; at hOGA Y69F it was 1200 µM; on hOGA Y69S, more than 4000 µM.

For the substance “p53 (Ser149) 11: 11-residue O-GlcNAc glycopeptide derived from p53 Ser149 site”, the Km worked out at 170 ± 40 µM in the experiment with hOGA Y69Q, 53 ± 5 µM in the experiment with hOGA Y69F and 290 ± 20 µM with hOGA Y69S.

Source of the values: PMC3476531, “Synergy of Peptide and Sugar in O-GlcNAcase Substrate Recognition” (Chemistry & Biology, 2012).
